The test system of assay [1] is genetic fatty Wistar rats with diabetes. Nature of the assay: 14-day administration to genetic fatty Wistar rats with diabetes: plasma glucose and hemoglobin. As to conditions: 14 days, compound A or MK-0431 10 mg/kg/day p.o., metformin 100 mg/kg/day, mean ± SD, n=5-6; for hemoglobin: hemoglobin Al. The assay is classed as in vivo. How it is done:
14-19 week-old male Wistar rats were divided into 5 groups, 5-6 each group. […] Blood was collected from caudal vein. The plasma glucose and hemoglobin Al were determined respectively with a commercial kit (NC-ROPET, Nippon Chemiphar CO.) by enzyme method.

The test system is the same in assay [2]. Nature of the assay: Oral glucose loading test in genetic fatty Wistar rats with diabetes after 7 days of administration. Type of assay: in vivo. As to conditions: phosphates 30 mg/kg/day p.o., metformin 100 mg/kg/day, mean ± SD, n=5. Here is the method: 13-14 week-old male Wistar rats were divided into 5 groups, 5 each group. […] Oral glucosieloading test was conducted immediately after fasting overnight (2 g glucose/kg/5 ml, p.o.). Blood was collected from caudal vein before or 120 minutes and 240 minutes after the test, and plasma glucose was analyzed with enzyme method (Encore Chemical System; Baker).

Where [3] appears, read: 0 min (before glucose load 2 g/kg p.o.).
[4] abbreviates: 120 min after glucose load 2 g/kg p.o.
Where [5] appears, read: 240 min after glucose load 2 g/kg p.o.

The record followed here is US8476272B2, “Pharmaceutical composition for treatment of type 2 diabetes” (Jiangsu Hengrui Medicine Co., Ltd., priority 2010, dated 2013).

SMILES strings stand for the structures.

On to `COC(=O)c1nc(C(F)(F)F)n2c1CN(C(=O)C[C@H](N)Cc1cc(F)c(F)cc1F)CC2` [Compound A, (R)-7-[3-amino-4-(2,4,5-trifluoro-phenyl)-butyryl]-3-trifluoromethyl-5,6,7,8-tetrahydro-imidazo[1,5-a]pyrazine-1-carboxylic acid methyl ester], for which, in assay [1], the plasma glucose came out at 214 ± 50 and the hemoglobin is listed as 5.3 ± 0.3.
For `CN(C)C(=N)N=C(N)N` [metformin], the plasma glucose in assay [2] (setting [3]) came to 119 ± 11 mg/dL; in assay [2] (setting [4]), 221 ± 62 mg/dL; in assay [2] (setting [5]), 107 ± 21 mg/dL; in assay [1], 327 ± 46. This compound showed a hemoglobin in assay [1] of 6.1 ± 0.6.
In the case of `COC(=O)c1nc(C(F)(F)F)n2c1CN(C(=O)C[C@H](N)Cc1cc(F)c(F)cc1F)CC2` [phosphate of compound A], the plasma glucose was found to be 103 ± 11 mg/dL in assay [2] (setting [3]), 137 ± 17 mg/dL in assay [2] (setting [4]) and 102 ± 9 mg/dL in assay [2] (setting [5]).
